In PMC7460544, “Prenylated Flavonoids from the Roots of Tephrosia rhodesica” (Journal of Natural Products, 2020):

Assays:
[1] = test system: chloroquine-sensitive (3D7) strain of Plasmodium falciparum; assay: asexual P. falciparum imaging growth inhibition assay (antiplasmodial activity); format: cell-based; details: for antiplasmodial activity in words: P. falciparum 3D7
[2] = test system: HEK 293 mammalian cells; assay: cytotoxicity against HEK 293 mammalian cells (LD50); format: cell-based; details: single experiment

SMILES	antiplasmodial activity in words [1]	LD50 (HEK-293), given as % at 40 μM [2] [% at 40 μM]	IC50 ([1]; Plasmodium falciparum, 3D7, read-out: IC50, μM (Pf3D7)) [µM]	LD50 (HEK-293) [2] [µM]
COc1cc(OC)c2c(c1CC=C(C)C)O[C@H](c1ccccc1)C[C@H]2OC [Quercetol B (9), quercetol B]	moderate activities	87	–	–
CC(C)=CCC1(CC=C(C)C)C(=O)[C@@](O)(CC=C(C)C)C(=O)C2=C1O[C@H](c1ccccc1)C[C@H]2O [Rhodiflavan A (2), 4,6-dihydroxy-6,8,8-tris(3-methylbut-2-en-1-yl)-2-phenyl-2,3,4,8-tetrahydro-5H-chromene-5,7(6H)-dione]	moderate activities	–	–	–
CC(C)=CCC1(CC=C(C)C)C(=O)[C@](O)(CC=C(C)C)C(=O)C2=C1O[C@H](c1ccccc1)C[C@H]2O [Rhodiflavan B (3), 4,6-dihydroxy-6,8,8-tris(3-methylbut-2-en-1-yl)-2-phenyl-2,3,4,8-tetrahydro-5H-chromene-5,7(6H)-dione]	moderate activities	34	–	–
CC(C)=CCc1cc2c(cc1O)OC[C@@]1(O)c3cc4c(cc3O[C@@H]21)OCO4 [Rhodacarpin (5), (6aS,12aS)-2-(3-methylbut-2-en-1-yl)-6H-[1,3]dioxolo[4′,5′:5,6]benzofuro[3,2-c]chromene-3,6a(12aH)-diol]	moderate activities	27	–	–
CC(C)=CCC1(CC=C(C)C)C(=O)C(=O)C2=C1O[C@H](c1ccccc1)C[C@H]2O (relative stereo) [Rhodiflavan C (4), (2S*,4R*)-4-hydroxy-7,7-bis(3-methylbut-2-en-1-yl)-2-phenyl-2,3,4,7-tetrahydrocyclopenta[b]pyran-5,6-dione]	moderate activities	101	–	–
CCN(CC)CCCC(C)Nc1ccnc2cc(Cl)ccc12 (stereo not drawn) [Chloroquine, reference compound]	–	–	0.0047	–
C=C(C)[C@H]1Cc2c(ccc3c2O[C@@H]2C(O)Oc4cc(OC)c(OC)cc4[C@@H]2C3=O)O1 (stereo partly drawn) [6-Hydroxyrotenone (15), 6-hydroxyrotenone]	moderate activities	–	–	10.9
